The text below walks through data of paper PMC5824694, “Evaluation of agonist and antagonist radioligands for somatostatin receptor imaging of breast cancer using positron emission tomography” (EJNMMI Radiopharmacy and Chemistry, 2017).

The nature of data set [1]: biodistribution and PET/CT in ZR-75-1 tumor-bearing NOD scid gamma mice. The following applies: female, mouse, in vivo, iv, total radioactivity; for tissue uptake at 1 h: NOD scid gamma (NOD.Cg-Prkdc^sci Il2rg^tm1Wjl/SzJ); for tissue to tissue ratio at 1 h: NOD scid gamma (NOD.Cg-Prkdc scid Il2rg tm1Wjl/SzJ). From the text: (§1) All animal studies were done in compliance with the Canadian Council on Animal Care guidelines and were approved by the Animal Care Committee of University of British Columbia (Vancouver, Canada). Immunodeficient female NOD.Cg-Prkdc ^sci Il2rg ^tm1Wjl/SzJ mice (NOD scid gamma) were obtained from an in-house breeding colony at the Animal Resource Centre of the BC Cancer Agency Research Centre and also from Jackson Laboratory. To sustain the growth of the ER-positive ZR-75-1 cell model, animals were administered a 1.7 mg, 60-day slow-release estrogen pellet from Innovative Research of America (Sarasota, FL) subcutaneously in the dorsal space of the neck. 3–5 days post pellet-implant, 10 million ZR-75-1 cells were re-suspended in a mixture of 1:1 PBS and Matrigel (Corning Inc., Corning, NY) and inoculated subcutaneously on the right shoulder. Tumors were grown for 5–6 weeks, until they reached a size of 7–11 mm in diameter.
(§2) Mice were sedated using 2 mL/min of O2 with 2% isoflurane and injected intravenously (i.v.) with 1–2 MBq of ^68Ga-labeled peptide. Mice were allowed to roam freely for 60 min prior to euthanasia by 2 mL/min of O2 with 4% isoflurane followed by CO2 asphyxiation. Blood was promptly collected by cardiac puncture and weighted. Internal organs were harvested, rinsed in PBS, patted dry and weighed. Organ uptake was measured either in a WIZARD 2480 gamma counter (Perkin Elmer) or Cobra II auto-gamma counter (Packard), both calibrated with standards of known ^68Ga activity. Uptake was normalized to the injected dose and to the respective weight of the organ, and expressed as percent injected dose per gram of tissue (%ID/g).
(§3) Tumor-bearing mice were injected i.v. with 8–9 MBq of ^68Ga-labeled peptide. Static PET images were acquired 55 min post-injection for 10 min using an Inveon microPET/CT scanner (Siemens, Erlangen, Germany) as described previously (Lin et al. [2015]). A baseline CT scan was used for localization and attenuation correction. Mice were promptly euthanized after imaging, and biodistribution studies were undertaken as described above.

For another data set, the system named is ZR-75-1 tumors. The data set is described as above. The following applies: mouse, in vivo, iv; for Kidneys uptake / Tumor uptake: female, NOD scid gamma (NOD.Cg-Prkdc^sci Il2rg^tm1Wjl/SzJ).
Excerpt: as §1, §2, §3

For the next data set, the system named is NET. The following applies: human, in vivo; cited from earlier work.
Data set [2] concerns sstr2. Also on record: method as in Reubi et al. [2000]. The following applies: ref Reubi et al. [2000]; cited from earlier work.
Data set [3] concerns the target T1, sstr2 receptors on ZR-75-1 cells (Homo sapiens, UniProt P30874).
T1 construct: we used a human breast cancer cell model with endogenous sstr2 expression (ZR-75-1 cells); host or cells: ZR-75-1 cells
Nature of the data set: saturation binding assay on ZR-75-1 cells. The following applies: ZR-75-1 cells in vitro; 1 h at 25 °C; one-site binding model.

The test system of data set [4] is sstr2. On the set-up: method as in Fani et al. [2012b]. The following applies: autoradiography approach; ref Fani et al. [2012b]; cited from earlier work.

A word on the tissue uptake: it is the share of the injected amount in each gram of the tissue. The term IC50 denotes the point on the concentration scale where inhibition reaches its midpoint.

Where two headings read alike, the source gives them in different places.

T1 sequence (P30874 whole entry): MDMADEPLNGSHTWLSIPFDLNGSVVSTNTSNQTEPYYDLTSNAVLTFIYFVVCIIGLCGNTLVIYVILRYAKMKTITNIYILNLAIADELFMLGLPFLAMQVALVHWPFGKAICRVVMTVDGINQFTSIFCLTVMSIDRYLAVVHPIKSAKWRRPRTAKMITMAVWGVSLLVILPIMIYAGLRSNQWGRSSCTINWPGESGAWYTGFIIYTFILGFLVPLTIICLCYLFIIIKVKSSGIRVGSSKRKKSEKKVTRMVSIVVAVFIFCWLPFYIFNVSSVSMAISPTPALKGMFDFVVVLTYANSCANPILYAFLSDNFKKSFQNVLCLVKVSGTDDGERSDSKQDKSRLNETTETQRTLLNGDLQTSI

In the case of `C[C@@H](O)[C@@H]1NC(=O)[C@H](CCCCN)NC(=O)[C@@H](Cc2c[nH]c3ccccc23)NC(=O)[C@H](Cc2ccc(O)cc2)NC(=O)[C@@H](NC(=O)[C@@H](Cc2ccccc2)NC(=O)CN2CCN(CC(=O)O)CCN(CC(=O)O)CCN(CC(=O)O)CC2)CSSC[C@@H](C(=O)N[C@H](CO)[C@@H](C)O)NC1=O` [^68Ga-DOTATOC, ^68Ga-DOTA-Tyr^3-octreotide, metal not drawn], the tissue uptake at 1 h in data set [1] (Adrenals uptake) turned out to be 9.52 %ID/g; in data set [1] (Blood uptake) it was 0.45 %ID/g; in data set [1] (Bone uptake), 0.2 %ID/g; in data set [1] (Brain uptake) it was 0.03 %ID/g; in data set [1] (Fat uptake), 0.18 %ID/g; in data set [1] (Heart uptake) it was 0.3 %ID/g. The tissue uptake at 1 h in data set [1] (Intestines uptake) is 2.39 %ID/g; in data set [1] (Kidneys uptake), 9.3 ± 1.7 %ID/g; in data set [1] (Liver uptake) it was 0.71 %ID/g; in data set [1] (Lungs uptake), 22.9 %ID/g; in data set [1] (Muscle uptake), 0.11 %ID/g; in data set [1] (Ovaries uptake), 0.51 %ID/g. For the same compound, the tissue uptake at 1 h was found to be 11 %ID/g in data set [1] (Pancreas uptake); 0.46 %ID/g in data set [1] (Spleen uptake); 2.75 %ID/g in data set [1] (Stomach uptake); 18.4 ± 2.9 %ID/g in data set [1] (Tumor uptake); 0.54 %ID/g in data set [1] (Uterus uptake). In addition, the Kidneys uptake with ZR-75-1 tumors (1 h) is given as 9.27 %ID/g. This compound yielded a Tumor uptake in the data set with ZR-75-1 tumors (1 h) of 18.44 %ID/g.
In the case of `C[C@@H](O)[C@@H]1NC(=O)[C@H](CCCCN)NC(=O)[C@@H](Cc2ccc(NC(N)=O)cc2)NC(=O)[C@H](Cc2ccc(NC(=O)[C@@H]3CC(=O)NC(=O)N3)cc2)NC(=O)[C@H](NC(=O)[C@H](Cc2ccc(Cl)cc2)NC(=O)CCC(C(=O)O)N2CCN(CC(=O)O)CCN(CC(=O)O)CC2)CSSC[C@@H](C(=O)N[C@H](Cc2ccc(O)cc2)C(N)=O)NC1=O` (stereo partly drawn) [^68Ga-NODAGA-JR11, metal not drawn], the tissue to tissue ratio at 1 h in data set [1] (Tumor to Background Ratio: Blood (tumor-to-blood)) came to 15.6; in data set [1] (Tumor to Background Ratio: Kidneys), 0.87; in data set [1] (Tumor to Background Ratio: Muscle (tumor-to-muscle)), 45.1. Also, the tissue uptake at 1 h in data set [1] (Adrenals uptake) turned out to be 2 %ID/g; in data set [1] (Blood uptake) it was 0.8 %ID/g; in data set [1] (Bone uptake), 0.26 %ID/g; in data set [1] (Brain uptake), 0.05 %ID/g; in data set [1] (Fat uptake) it was 0.23 %ID/g; in data set [1] (Heart uptake), 0.46 %ID/g. The tissue uptake at 1 h in data set [1] (Intestines uptake) is 0.9 %ID/g; in data set [1] (Kidneys uptake), 14.1 ± 1.7 %ID/g; in data set [1] (Liver uptake), 0.99 %ID/g; in data set [1] (Lungs uptake) it was 4.72 %ID/g; in data set [1] (Muscle uptake), 0.28 %ID/g; in data set [1] (Ovaries uptake) it was 0.67 %ID/g. In addition, the tissue uptake at 1 h in data set [1] (Pancreas uptake) came to 9.29 %ID/g; in data set [1] (Spleen uptake), 0.39 %ID/g; in data set [1] (Stomach uptake), 1.36 %ID/g; in data set [1] (Tumor uptake), 12.2 ± 0.8 %ID/g; in data set [1] (Uterus uptake), 0.86 %ID/g. For the same compound, in the data set with ZR-75-1 tumors (1 h), the Kidneys uptake is 14.12 %ID/g. Further, the Tumor uptake in the data set on ZR-75-1 tumors (1 h) turned out to be 12.21 %ID/g. Moreover, the “Tumor to Background Ratio: Blood (tumor-to-blood)” value in the data set with ZR-75-1 tumors came to 15.6 ± 2.2. Further, the “Tumor to Background Ratio: Muscle (tumor-to-muscle)” value in the data set with ZR-75-1 tumors amounted to 45.2 ± 11.6. Further, in the data set with NET, the “higher SUVmax uptake compared to ^68Ga-DOTATOC” value is given as ~ 15%.
Turning to `C[C@@H](O)[C@H](NC(=O)[C@@H]1CSSC[C@H](NC(=O)[C@@H](Cc2ccccc2)NC(=O)CN2CCN(CC(=O)O)CCN(CC(=O)O)CCN(CC(=O)O)CC2)C(=O)N[C@@H](Cc2ccc(O)cc2)C(=O)N[C@H](Cc2c[nH]c3ccccc23)C(=O)N[C@@H](CCCCN)C(=O)N[C@@H]([C@@H](C)O)C(=O)N1)C(=O)O` [^natGa-DOTATATE, metal not drawn], the IC50 in the data set on sstr2 [2] is […].
Regarding `C[C@@H](O)[C@H](NC(=O)[C@@H]1CSSC[C@H](NC(=O)[C@@H](Cc2ccccc2)NC(=O)CN2CCN(CC(=O)O)CCN(CC(=O)O)CCN(CC(=O)O)CC2)C(=O)N[C@@H](Cc2ccc(O)cc2)C(=O)N[C@H](Cc2c[nH]c3ccccc23)C(=O)N[C@@H](CCCCN)C(=O)N[C@@H]([C@@H](C)O)C(=O)N1)C(=O)O` [^68Ga-DOTATATE, ^68Ga-DOTA-Tyr^3-octreotate, metal not drawn], the tissue uptake at 1 h was determined as 0.35 %ID/g in data set [1] (Blood uptake); 0.25 %ID/g in data set [1] (Bone uptake); 0.28 %ID/g in data set [1] (Fat uptake); 0.67 %ID/g in data set [1] (Heart uptake); 7.35 %ID/g in data set [1] (Intestines uptake); 8.5 ± 1.7 %ID/g in data set [1] (Kidneys uptake). Besides, the tissue uptake at 1 h in data set [1] (Liver uptake) is 1.95 %ID/g; in data set [1] (Lungs uptake) it was 28.7 %ID/g; in data set [1] (Ovaries uptake), 0.89 %ID/g; in data set [1] (Pancreas uptake) it was 51.6 %ID/g; in data set [1] (Spleen uptake), 0.84 %ID/g; in data set [1] (Stomach uptake), 8.29 %ID/g. In addition, the tissue uptake at 1 h in data set [1] (Uterus uptake) was 0.84 %ID/g. Further, in the data set on ZR-75-1 tumors (1 h), the Kidneys uptake is recorded as 8.45 %ID/g. Also, the Brain uptake in the data set on ZR-75-1 tumors (1 h) worked out at 0.03 %ID/g.
As for `C[C@@H](O)[C@@H]1NC(=O)[C@H](CCCCN)NC(=O)[C@@H](Cc2c[nH]c3ccccc23)NC(=O)[C@H](Cc2ccc(O)cc2)NC(=O)[C@@H](NC(=O)[C@@H](Cc2ccccc2)NC(=O)CN2CCN(CC(=O)O)CCN(CC(=O)O)CCN(CC(=O)O)CC2)CSSC[C@@H](C(=O)N[C@H](CO)[C@@H](C)O)NC1=O` [^natGa-DOTATOC, metal not drawn], the IC50 in the data set with sstr2 [2] is […].
Regarding `C[C@@H](O)[C@@H]1NC(=O)[C@H](CCCCN)NC(=O)[C@@H](Cc2ccc(NC(N)=O)cc2)NC(=O)[C@H](Cc2ccc(NC(=O)[C@@H]3CC(=O)NC(=O)N3)cc2)NC(=O)[C@H](NC(=O)[C@H](Cc2ccc(Cl)cc2)NC(=O)CCC(C(=O)O)N2CCN(CC(=O)O)CCN(CC(=O)O)CC2)CSSC[C@@H](C(=O)N[C@H](Cc2ccc(O)cc2)C(N)=O)NC1=O` (stereo partly drawn) [^67/natGa-NODAGA-JR11, metal not drawn], the “Bmax (number of binding sites)” value in data set [3] is given as 4.39 ± 0.32 × 10^4 sites/cell.
For `C[C@@H](O)[C@@H]1NC(=O)[C@H](CCCCN)NC(=O)[C@@H](Cc2ccc(NC(N)=O)cc2)NC(=O)[C@H](Cc2ccc(NC(=O)[C@@H]3CC(=O)NC(=O)N3)cc2)NC(=O)[C@H](NC(=O)[C@H](Cc2ccc(Cl)cc2)NC(=O)CCC(C(=O)O)N2CCN(CC(=O)O)CCN(CC(=O)O)CC2)CSSC[C@@H](C(=O)N[C@H](Cc2ccc(O)cc2)C(N)=O)NC1=O` (stereo partly drawn) [^natGa-NODAGA-JR11, metal not drawn], the IC50 with sstr2 [4] is 1.2 ± 0.2 nM.
